Laboratory results: US20160229835A1, “NOVEL PYRIDYLOXYACETYL TETRAHYDROISOQUINOLINE COMPOUNDS USEFUL AS NAMPT INHIBITORS” (ELI LILLY AND COMPANY, priority 2013, published 2016)
Read-outs that look alike come from different tables or passages of the source.

What was measured:
Format in all cases: cell-based
A704 = test: Cell Proliferation Assay ±NA, A704; conditions: Homo sapiens, A704, kidney, treatment time 72 hr
Experimental: (§1) The purpose of this assay is to measure the ability of a compound to inhibit proliferation of endometrium, kidney, adrenal gland, and autonomic ganglia cancer cell lines dependent on the NAMPT-mediated NAD^+ formation in the presence or absence of NA (10 μM) in vitro. One day before the planned initiation of compound treatment portion of the assay, one vial of assay ready frozen cells is thawed, and the cells are grown overnight in the media as shown in Table 3 under 5% CO2 at 37° C. Then, the cell layer is briefly rinsed with 0.25% (w/v) Trypsin-0.038% (w/v) EDTA solution followed with the addition of 3.0 ml of Trypsin-EDTA solution. Once the cell layer is dispersed, 8.0 ml of complete growth medium (Table 3) is added and cells are aspirated by gently pipetting. The cell suspension is transferred to a centrifuge tube and centrifuged at 800-1000 rpm for 3-5 minutes. The supernatant is discarded using a vacuum pump. The cell pellet is suspended in a complete medium by gently pipetting. The cell numbers are counted and adjusted to the appropriate density (Table 3). […] The bottom of each plate is pasted with a white back seal and luminescence is recorded using a Flexstation 3 with the following settings: Luminescence and integration time of 500 ms.

Caki-1 = test: Cell Proliferation Assay ±NA, Caki-1; conditions: Homo sapiens, Caki-1, kidney, treatment time 72 hr
Experimental: as §1

OS-RC-2 = test: Cell Proliferation Assay ±NA, OS-RC-2; conditions: Homo sapiens, OS-RC-2, kidney, treatment time 72 hr
Experimental: as §1

COLO-684 = test: Cell Proliferation Assay ±NA, COLO-684; conditions: Homo sapiens, COLO-684, endometrium, treatment time 72 hr
Experimental: as §1

TGW = test: Cell Proliferation Assay ±NA, TGW; conditions: autonomic ganglia, treatment time 48 hr
Experimental: as §1

KLE = test: Cell Proliferation Assay ±NA, KLE; conditions: Homo sapiens, endometrium, treatment time 72 hr
Experimental: as §1

GOTO = test: Cell Proliferation Assay ±NA, GOTO; conditions: autonomic ganglia, treatment time 96 hr
Experimental: as §1

SN12C = test: Cell Proliferation Assay ±NA, SN12C; conditions: Homo sapiens, kidney, treatment time 72 hr
Experimental: as §1

AN3-CA = test: Cell Proliferation Assay ±NA, AN3-CA; conditions: Homo sapiens, endometrium, treatment time 72 hr
Experimental: as §1

CHP-212 = test: Cell Proliferation Assay ±NA, CHP-212; conditions: Homo sapiens, CHP-212, autonomic ganglia, treatment time 72 hr
Experimental: as §1

SNG-M = test: Cell Proliferation Assay ±NA, SNG-M; conditions: endometrium, treatment time 72 hr
Experimental: as §1

RL95-2 = test: Cell Proliferation Assay ±NA, RL95-2; conditions: Homo sapiens, RL95-2, endometrium, treatment time 72 hr
Experimental: as §1

A498 = test: Cell Proliferation Assay ±NA, A498; conditions: Homo sapiens, A498, kidney, treatment time 48 hr
Experimental: as §1

786-0 = test: Cell Proliferation Assay ±NA, 786-0; conditions: Homo sapiens, 786-0, kidney, treatment time 48 hr
Experimental: as §1

HEC-1-A = test: Cell Proliferation Assay ±NA, HEC-1-A; conditions: Homo sapiens, endometrium, treatment time 72 hr, tested in a growth medium containing nicotinic acid
Experimental: as §1

TK10 = test: Cell Proliferation Assay ±NA, TK10; conditions: Homo sapiens, TK-10, TK10, kidney, treatment time 72 hr
Experimental: as §1

[1] = NA 0.0 μM, read-out: IC50 (μM) NA (0.0 μM)
[2] = NA 10 μM, read-out: IC50 (μM) NA (10 μM)

With `CC(C)(O)CS(=O)(=O)Nc1ccc2c(c1)CCN(C(=O)COc1cccnc1)C2` [Example 1, 2-Hydroxy-2-methyl-N-[2-[2-(3-pyridyloxy)acetyl]-3,4-dihydro-1H-isoquinolin-6-yl]propane-1-sulfonamide] the IC50 (A704; [1]) was 0.37 µM, the IC50 (A704; [2]) was greater than 2 µM and the IC50 (Caki-1; [1]) was 0.13 µM. For the same molecule, the IC50 (Caki-1; [2]) was 0.11 µM, the IC50 (OS-RC-2; [1]) was greater than 2 µM and the IC50 (OS-RC-2; [2]) was greater than 2 µM. The IC50 (COLO-684; [1]) was 0.03 µM, the IC50 (COLO-684; [2]) was greater than 2 µM and the IC50 (TGW; [1]) was 0.01 µM. It also gave an IC50 (TGW; [2]) of 0.01 µM, an IC50 (KLE; [1]) of 0.04 µM and an IC50 (KLE; [2]) greater than 2 µM. For the same molecule, the IC50 (GOTO; [1]) was 0.02 µM, the IC50 (GOTO; [2]) was 0.02 µM and the IC50 (SN12C; [1]) was 0.06 µM. The IC50 (SN12C; [2]) was 0.05 µM, the IC50 (AN3-CA; [1]) was 0.02 µM and the IC50 (AN3-CA; [2]) was 0.02 µM. It also gave an IC50 (CHP-212; [1]) of 0.07 µM, an IC50 (CHP-212; [2]) of 0.07 µM and an IC50 (SNG-M; [1]) of 0.02 µM. For the same molecule, the IC50 (SNG-M; [2]) was 0.02 µM, the IC50 (RL95-2; [1]) was 0.02 µM and the IC50 (RL95-2; [2]) was 0.02 µM. For the same molecule, the IC50 (A498; [1]) was 1.84 µM, the IC50 (A498; [2]) was greater than 2 µM and the IC50 (786-0; [1]) was 0.07 µM. For the same molecule, the IC50 (786-0; [2]) was 0.04 µM, the IC50 (HEC-1-A; [1]) was greater than 2 µM and the IC50 (HEC-1-A; [2]) was greater than 2 µM. The IC50 (TK10; [1]) was 0.22 µM and the IC50 (TK10; [2]) was 0.21 µM.
